Experimental data taken from patent publication US20110195898A1, “TREATMENT OF ALZHEIMER'S DISEASE AND MILD COGNITIVE IMPAIRMENT USING GNRH-I ANALOGS AND ONE OR MORE OF ACETYLCHOLINESTERASE INHIBITORS AND NMDA RECEPTOR ANTAGONISTS” (Voyager Pharmaceutical Corporation, priority 2004, published 2011).
Structures can show the parent of a compound that is named as a salt.

Key:
[1] = test system: mild-to-moderate Alzheimer's disease patients; details: cited from earlier work
[2] = in vivo; cited from earlier work
[3] = test system: women diagnosed with mild-to-moderate Alzheimer's Disease; experiment: ADAS-Cog test, 48-week double-blind placebo-controlled clinical trial; assay type: in vivo, human
Experimental: During 2004-2005, a 48-week, double-blind placebo-controlled dose ranging study was conducted in 108 women diagnosed with mild-to-moderate Alzheimer's Disease. The study inclusion criteria included a requirement that each patient either (a) is taking a cholinesterase inhibitor, began taking it at least 90 days prior to the trial and is likely to continue taking it at the same dosage level throughout the trial; or (b) has never taken a cholinesterase inhibitor or has stopped taking at least 90 days prior to the trial and is likely to remain off cholinesterase inhibitors throughout the trial. The patients in the subgroup taking cholinesterase inhibitors were in turn divided into two groups for analysis purposes:
Group 1 patients were administered an injectable 22.5 mg formulation of leuprolide acetate in combination with a stable dose of acetylcholinesterase inhibitors (AChEI). At the completion of the study, Group 1 included 24 subjects. Group 2 patients were administered a placebo injection (saline) in combination with a stable dose of AChEI. […]
During the Phase II study, the administrations of leuprolide acetate and placebo occurred at weeks 0, 12, 24, 36, and 48 of the study, whereas doses of AChE inhibitors were taken as prescribed by a physician (determined as the proper beneficial level) to each specific patient before enrollment. […]

[4] = test system: neuroblastoma cell lines (DAOY, SKNMC, CCF-SttG1); experiment: Cell growth assay (WST-8, 96 well), neuroblastoma cell lines; assay type: cell-based; details: 10^-5 M (12.25 μg/ml) vs 0 M control, WST-8, optical density 450 nm, FIG. 5
Experimental: (§1) For cell growth assays in a 96 well format, a specific number of cells were plated (about 1000 cells for each line). All cell lines were plated in their respective growth media (supplemented with either 1% regular fetal bovine serum, 1% charcoal/dextran-stripped fetal bovine serum or 0.25% Albumax™ (Invitrogen Corp., Grand Island N.Y.)) and allowed to settle for 24 hours. Leuprolide treatments were commenced […]. A 10 mM (12.25 mg/ml) solution of leuprolide acetate salt in phosphate buffered saline was prepared and diluted appropriately to obtain the desired final concentrations. Treatment concentrations were 0 M (control) and 10^−5 M (shown as 1.00E-5, 12.25 μg/ml). The number of cells in each group was measured by incubating cells with WST-8 (2-(2-methoxy-4-nitrophenyl)-3-(4-nitrophenyl)-5-(2,4-disulfophenyl)-2H-tetrazolium, monosodium salt) which produces a water soluble formazan dye that was detected by measuring optical density (at 450 nm) using a μQuant™ Universal Microplate Spectrophotometer (Bio-Tek® Instruments, Inc., Winooski, Vt.).

[5] = test system: glioblastoma cell lines (LN229, U87, U118MG); experiment: Cell growth assay (WST-8, 96 well), glioblastoma cell lines; assay type: cell-based; details: 10^-5 M (12.25 μg/ml) vs 0 M control, WST-8, optical density 450 nm, FIG. 5
Experimental: as §1

testosterone suppression = details: Fowler et al. 2000; cited from earlier work
men with prostate cancer = details: daily injections for up to two years, Lupron Depot package insert; cited from earlier work

COc1cc2c(cc1OC)C(=O)C(CC1CCN(Cc3ccccc3)CC1)C2 (stereo not drawn) [donepezil, Donepezil]
decline on ADAS-cog after 52 weeks of treatment ([1]; Wilcock et al., one year trial comparing two AChEIs): 3.43±0.8 points

CC12CC3CC(C)(C1)CC(N)(C3)C2 [Memantine]
dose excreted in the urine unchanged [2]: up to 82%

CCNC(=O)[C@@H]1CCCN1C(=O)[C@H](CCCNC(=N)N)NC(=O)[C@H](CC(C)C)NC(=O)[C@@H](CC(C)C)NC(=O)[C@H](Cc1ccc(O)cc1)NC(=O)[C@H](CO)NC(=O)[C@H](Cc1c[nH]c2ccccc12)NC(=O)[C@H](Cc1c[nH]cn1)NC(=O)[C@@H]1CCC(=O)N1 [leuprolide acetate, 5-oxo-L-prolyl-L-histidyl-L-tryptophyl-L-seryl-L-tyrosyl-D-leucyl-L-leucyl-L-arginyl-N-ethyl-L-prolinamide acetate (salt)]
cognitive decline as percent of expected no-treatment decline ([3]; 100% decline = 5.6 ADAS-cog points in a year (literature placebo)): 84%
decline on ADAS-cog (mean change from baseline) ([3]; females, over 48 weeks, stable dose of AChEI, leuprolide acetate (Lupron Depot) 22.5 mg at 12-week intervals where given): 4.68 points
cell growth of neuroblastoma cell lines [4]: inhibits cell growth
cell growth of neuroblastoma cell lines ([4]; listed as Leuprolide): very effective at slowing the growth
cell growth of glioblastoma cell lines [5]: inhibits cell growth
cell growth of glioblastoma cell lines ([5]; listed as Leuprolide): very effective at slowing the growth
serum concentration considered adequate for testosterone suppression (testosterone suppression): less than 1 ng/ml
adverse effects of 20 mg per day versus 1 mg per day (men with prostate cancer): did not result in any adverse effects different from what was seen with the 1 mg dose

NCCCS(=O)(=O)O [tramiprosate]
overall 18 month decline on ADAS-cog, mild patients ([1]; ongoing trial, overall decline, mild patients): 5.5 points
overall 18 month decline on ADAS-cog, moderate patients ([1]; ongoing trial, overall decline, moderate patients): 6.3 points
